# Measured values: article PMC2073845, “Tracer Studies of Potential Radiosensitizing Agents” (British Journal of Cancer, 1956)
# Like-named read-outs stand apart in the source and are kept apart here.
# What was measured:
# [1] = Differential absorption ratio (D.A.R.) of organs of rats carrying a Walker carcinoma after injection of the radio-labelled compound
# Source text: (§1) OPO3Na2 OPO3Na2 OP03H2 ICOH3 CH3 CH3 131I I 82Br CH3 1311 OPO3Na2 OPO3Na2 OP03H2 I II III METHODS AND MATERIALS Counting.-y-emission from the halogens was the basis of detection. The simple technique of placing samples of the organs under a shielded counter could not be used since variations in the thickness of the organs would vary the sample- counter distance, leading to considerable counting errors. This type of error was reduced by locating the sample on a thin aluminium tray midway between two G-10-Pb glass-covered Geiger-Muller tubes in copper sheaths placed 10 cm. apart in a castle of 2 inch lead and connected in parallel to the same scaler. The 50 D. H. MARRIAN AND D. R. MAXWELL sensitivity of the arrangement was about 9000 c.p.m./,tC 52Br. Samples and backgrounds were counted to a standard error of 5 per cent or less. […] The hydroscopic salt (II) was dissolved in 0 9 per cent saline and the concentration determined by ultraviolet spectroscopy (absorption maxima at 232m,u. (M = 70,000) and 290 m,u. (M = 5,800) in 0-01N- hydrochloric acid). […] The purity of the solution was determined by paper electrophoresis at pH 7 (Markham and Smith, 1952). This clearly separated the organic compound from iodide ion, the former being detected by ultraviolet photography and the latter by spraying with starch solution and exposure to chlorine vapour. […]
# [2] = Radioactivity in blood, plasma and urine as percentage of injected dose, tumour-bearing rats
# Source text: OPO3Na2 OPO3Na2 OP03H2 ICOH3 CH3 CH3 131I I 82Br CH3 1311 OPO3Na2 OPO3Na2 OP03H2 I II III METHODS AND MATERIALS Counting.-y-emission from the halogens was the basis of detection. The simple technique of placing samples of the organs under a shielded counter could not be used since variations in the thickness of the organs would vary the sample- counter distance, leading to considerable counting errors. This type of error was reduced by locating the sample on a thin aluminium tray midway between two G-10-Pb glass-covered Geiger-Muller tubes in copper sheaths placed 10 cm. apart in a castle of 2 inch lead and connected in parallel to the same scaler. The 50 D. H. MARRIAN AND D. R. MAXWELL sensitivity of the arrangement was about 9000 c.p.m./,tC 52Br. Samples and backgrounds were counted to a standard error of 5 per cent or less. […] The hydroscopic salt (II) was dissolved in 0 9 per cent saline and the concentration determined by ultraviolet spectroscopy (absorption maxima at 232m,u. (M = 70,000) and 290 m,u. (M = 5,800) in 0-01N- hydrochloric acid). […] Exposure to chlorine vapour caused red spots of bromofluoroscein to appear on a yellow background. […] The iodinated compound (III), was dissolved in 0 9 per cent saline and neutralised by addition of sodium hydroxide solution. The purity of the solution was determined by paper electrophoresis at pH 7 (Markham and Smith, 1952). This clearly separated the organic compound from iodide ion, the former being detected by ultraviolet photography and the latter by spraying with starch solution and exposure to chlorine vapour. […] It was dissolved in 0 9 per cent saline before injection. […] C. for 4 hours at pH 4, 6, 7 and 9 and the reaction mixtures examined by paper electrophoresis. […] The radioactivity of these planchettes when the organs were being counted was used to calculate the differential absorption ratio (D.A.R.), (Marrian and Maxwell, 1956). In most experiments with the bromo-compound, the time required to count the organ necessitated a decay correction, calculated from the known half-life of 82Br-bromine (36 ? 0*2 hours). […]
# [3] = for injected compound in urine: 5 mg i.v.
# Source text: OPO3Na2 OPO3Na2 OP03H2 ICOH3 CH3 CH3 131I I 82Br CH3 1311 OPO3Na2 OPO3Na2 OP03H2 I II III METHODS AND MATERIALS Counting.-y-emission from the halogens was the basis of detection. The simple technique of placing samples of the organs under a shielded counter could not be used since variations in the thickness of the organs would vary the sample- counter distance, leading to considerable counting errors. This type of error was reduced by locating the sample on a thin aluminium tray midway between two G-10-Pb glass-covered Geiger-Muller tubes in copper sheaths placed 10 cm. apart in a castle of 2 inch lead and connected in parallel to the same scaler. The 50 D. H. MARRIAN AND D. R. MAXWELL sensitivity of the arrangement was about 9000 c.p.m./,tC 52Br. Samples and backgrounds were counted to a standard error of 5 per cent or less. […] The hydroscopic salt (II) was dissolved in 0 9 per cent saline and the concentration determined by ultraviolet spectroscopy (absorption maxima at 232m,u. (M = 70,000) and 290 m,u. (M = 5,800) in 0-01N- hydrochloric acid). […] Exposure to chlorine vapour caused red spots of bromofluoroscein to appear on a yellow background. […] The iodinated compound (III), was dissolved in 0 9 per cent saline and neutralised by addition of sodium hydroxide solution. The purity of the solution was determined by paper electrophoresis at pH 7 (Markham and Smith, 1952). This clearly separated the organic compound from iodide ion, the former being detected by ultraviolet photography and the latter by spraying with starch solution and exposure to chlorine vapour. […] It was dissolved in 0 9 per cent saline before injection. […] C. for 4 hours at pH 4, 6, 7 and 9 and the reaction mixtures examined by paper electrophoresis. […] Animal experiments Rats carring a Walker carcinoma were used as previously described (Marrian and Maxwell, 1956). […] The radioactivity of these planchettes when the organs were being counted was used to calculate the differential absorption ratio (D.A.R.), (Marrian and Maxwell, 1956). In most experiments with the bromo-compound, the time required to count the organ necessitated a decay correction, calculated from the known half-life of 82Br-bromine (36 ? 0*2 hours). […] Upper curve: single counter. Lower curve: double counter. Ordinate: Percentage error in the count.
# chick fibroblasts = settings: cited from earlier work
# [4] = design: method as in Mitchell, 1955; Marrian and Maxwell, 1956; settings: after intravenous injection; ref Mitchell, 1955; Marrian and Maxwell, 1956; cited from earlier work
# [5] = Attempted exchange reactions with ammonium 82Br-bromide in vitro; format: physicochemical; settings: reactants in molar ratio; lower detection limit 2.0 per cent
# Source text: as §1
structure (smiles),measurement,setting,value
"Cc1c([82Br])c(OP(=O)([O-])[O-])c2ccccc2c1OP(=O)([O-])[O-].[Na+].[Na+].[Na+].[Na+] [II, tetrasodium 2-methyl-3-82Br-bromo-I: 4-naphthohydroquinone diphosphate]",D.A.R. of the tumour compared with other organs,"[1]; 1 mg i.v., only exceeded by stomach and contents",consistently higher than any of the above organs
same,plasma share of the radioactivity of the whole blood,[2]; 1 mg i.v.,~67 per cent
same,radioactivity associated with the blood,"[2]; after 30 minutes, 1 mg i.v.",about 15 per cent of the injected dose
same,radioactivity excreted in the urine,"[2]; of a 1 mg (10.6 uC) dose, during 48 hours",30-35 per cent
same,form of radioactivity in stomach contents (paper electrophoresis),[3]; 6 hours after injection of 10 mg,present as bromide ion
same,form of radioactivity in urine (paper chromatography),[3]; rat given 5 mg intravenously,most of the radioactivity was present as bromide ion
same,injected compound in urine,[3]; urine collected from 0 to 2 hours,small amounts
same,injected compound in urine,[3]; urine collected from 2 to 6 hours after injection,None of the injected compound could be detected
same,antimitotic properties,"chick fibroblasts; ref Friedmann, Marrian and Simon-Reuss, 1952",established
"Cc1c(C)c(OP(=O)(O)O)c([131I])c([131I])c1OP(=O)(O)O [III, 2: 3-dimethyl-5: 6-di-1311-iodo-I: 4-benzohydroquinone diphosphate]",radioactivity of the thyroid,[1]; 10 mg,no more radioactivity than the surrounding tissue
same,form of the label half an hour after injection,"[3]; 10 mg, by comparison with reported iodide distribution",much of the label derived from compound (III) is present as free iodide ion
same,iodide ion in stomach contents and urine (paper electrophoresis),"[3]; 10 mg, first 3 hours",contain large amounts of iodide ion
same,antimitotic properties,"chick fibroblasts; same test, ref Simon-Reuss, unpublished",inactive
"Cc1cc(OP(=O)(O)O)c2ccccc2c1OP(=O)(O)O [Synkavit, tetrasodium 2-methyl-I: 4-naphthohydro-quinone diphosphate]",accumulation in tumour tissue,[4],can accumulate in tumour tissue for short periods
Cc1c(Br)c(OP(=O)([O-])[O-])c2ccccc2c1OP(=O)([O-])[O-].[Na+].[Na+].[Na+].[Na+] [Tetrasodium 2-methyl-3-bromo-1 4-naphthohydroquinone diphosphate],exchange with ammonium 82Br-bromide,[5],no exchange could be detected
